Measurements as given in article PMC10888192, “New Derivatives of 1-(3-Methyl-1-Benzofuran-2-yl)Ethan-1-one: Synthesis and Preliminary Studies of Biological Activity” (International Journal of Molecular Sciences, 2024).

Key:
[1] = system: K562 cells (human chronic myelogenous leukemia); test: MTT cytotoxicity assay, K562; type: cell-based; conditions: 72 h incubation, mean ± SD
Experimental: (§1) The cell viability was analyzed at the following six concentrations of compounds: 5, 10, 20, 40, 60 and 100 µM after 72 h incubation.
(§2) Additionally, to determine the safety profile of the tested compounds, the therapeutic index (TI) (the ratio of IC50 value in HaCaT to cancer cells K562) was calculated. […] The goal of conducting the MTT assay in this research was to select benzofuran derivatives, which manage to reduce viability of cancer cells while exposing mild effects on normal healthy cells.
(§3) The cytotoxicity was evaluated by MTT reduction assay, which measures mitochondrial respiratory function. The test was performed based on the method described by Präbst et al.. Cells (1 × 10^4/well), in logarithmic phase, were seeded into 96-well plates in appropriate medium. After 24 h, cells were exposed to test compounds. […] After 72 h, the medium with the compounds was completely removed and MTT solution (0.5 mg/mL) in fresh medium without serum was added to each well. Plates with cells were incubated for 4 h at 37 °C in the dark. Then, MTT solution was removed and replenished with 0.1 mL DMSO: isopropanol (1:1) mixture to dissolve the generated formazan crystals. The optical density was measured with a […] GO (ThermoScientific) microplate reader at 570 nm. Replicates of three wells for each dosage, including vehicle control, were analyzed for each experiment. The experiments were conducted in triplicate. Control cells which were only treated with respective medium were used as the 100% viability value. […] Additionally, to determine the safety profile of the test compounds, therapeutic indexes (TI) (the ratio of IC50 values in HaCat to cancer cells (K562, PC3, SW620, Cack-1)) were calculated.

K562 cells [2] = test: Trypan blue exclusion assay, K562; type: cell-based, human; conditions: 72 h; for Cell Number (×10^6): K562, trypan blue, IC50 concentration
Experimental: The MTT assay assesses the viable cell number based on mitochondrial enzyme activity. […] In the next step of our studies, we analyzed the total cell number and viability after exposure to the selected compounds at IC50 concentration using trypan blue exclusion assay. K562 cells were incubated with tested compounds over 72 h. […] To assess the antiproliferative properties of newly synthesized derivatives, we analyzed the total cell number. […] The parallel experiment was conducted with HaCaT cells. […] The trypan blue test rapidly assesses cell viability indirectly from cell membrane integrity, but some publications have indicated weaknesses of this viability test. […] On the other hand, cell membrane integrity may be affected even while the cell might still be able to repair itself and become fully viable.
To evaluate the antiproliferative effects of the novel benzofurans derivatives the trypan blue exclusion assay was performed. Cells (HaCat, and K562) were seeded into 12-well plates (2 × 10^4 cells/well). After 24 h, cells were exposed to the tested compounds at concentrations of their respective IC50 and incubated for 72h. Then, cells were harvested and centrifugated (500× g, 5min). After centrifugation supernatant was removed and cell sediment was dissolved in 0.2 mL of PBS. Next, 10 µL of cells solution was mixed with 10 µL of trypan blue dye. Cells were counted by automatic cell counter (Countessa). Data obtained were expressed as the mean ± SD and the mean percentage of viable cells was calculated from three independent experiments performed in triplicate.

[3] = system: caspases 3 and 7 in K562 cells; test: Caspase-Glo 3/7 assay; type: cell-based, human; conditions: IC50 concentration; for Effect on activity of caspases 3 and 7: 4 h incubation
Description: ROS may play a different function in different stages of cancer. ROS might enhance cell growth and proliferation through the induction of various cell signaling pathways involving nuclear factor-kappa B (NF-κB) and STAT3, hypoxia-inducible factor 1α (HIF1α), kinases, growth factors, cytokines and many other proteins. On the other hand, the accumulation of ROS can induce cell damage and promote apoptosis. It has also been confirmed that elevated ROS concentration may cause mitochondrial membrane depolarization and facilitate increased cellular pro-apoptotic molecules releasing. […] As has been previously reported, lead compound 1,1′-[3-(bromomethyl)-5,6-dimethoxy-1-benzofuran-2,7-diyl] induces apoptosis in human leukemia cells. […] We used the Annexin V-FITC test, which allows us to detect the early structural changes in cellular membrane which occur during apoptosis. […] In the control sample almost 94% of cells were neither apoptotic nor necrotic. […] As has been previously written, the MTT test assesses the toxicity of tested compounds based on the activity of mitochondrial enzymes. […] Our results are in agreement with studies conducted by Liu et al. and Su et al. They report that the benzofuran derivatives ACDB and BL-038 induce apoptosis of human chandrosarcoma cells through ROS generation, mitochondria and endoplasmic reticulum dysfunction. BL-038 increases ROS production and dysregulates mitochondria membrane potential. This causes cytochrome C to be released from mitochondria and caspase activation. Similar effects have been observed for 2-amino-3-(2-chlorophenyl)-6-(4-dimethylaminophenyl) benzofuran-4-yl acetate (ACDB). It is well documented that disruption of the mitochondrial membrane as a result of, for example, the action of free radicals causes the release of cytochrome C. In the next step, cytochrome C binds to Apaf-1 (apoptotic protease activating factor 1) and it becomes the main component of apoptosome. The binding of cytochrome C with Apaf-1 is a critical step in apoptosome formation because it is responsible for the induction of intrinsic cell death pathway triggered by caspase activation. The observed increased concentration of hydrogen peroxide in cells exposed to both tested compounds might be a key factor for the molecular mechanism of apoptosis. Hydrogen peroxide can affect the redox state of cytochrome C. In addition to the effect of hydrogen peroxide on the iron atom in the cytochrome, it can also affect the activation of caspases. In order to estimate the effect of K562 exposure on the tested compounds as well as to confirm apoptotic properties of new benzofurans, we analyzed the effect of the compounds caspases 3 and 7 activities. […] We observed significant changes of activity after 48 h exposure. […] The caspase cascade responsible for executing cell death following cytochrome C release is well documented. Available research indicates, first of all, the key role of caspases 3 and 7 as mediators in the apoptosis through the intrinsic (mitochondrial) cell death pathway. […] They have shown that caspase 9 is responsible for mitochondrial morphological changes and ROS production by cleaving and activating Bid into tBid. Following caspase 9 activation, caspase 3 […] ROS generation and is essential for the efficient execution of apoptosis, whereas effector caspase 7 is needed for apoptotic cell detachment. […]
The induction of cell apoptosis was also analyzed by luminescent assay with the Caspases-Glo3/7 assay system (Promega). […]

[4] = system: Cacki-1 cells (human clear cell renal cell carcinoma); test: MTT cytotoxicity assay, Cacki-1; type: cell-based; conditions: 72 h incubation
Experimental: as §1, §2, §3

K562 cells [5] = test: Annexin V-FITC/PI apoptosis assay, flow cytometry; type: cell-based, human; conditions: Annexin V-FITC, IC50 concentration, 72 h
Description: ROS may play a different function in different stages of cancer. ROS might enhance cell growth and proliferation through the induction of various cell signaling pathways involving nuclear factor-kappa B (NF-κB) and STAT3, hypoxia-inducible factor 1α (HIF1α), kinases, growth factors, cytokines and many other proteins. On the other hand, the accumulation of ROS can induce cell damage and promote apoptosis. It has also been confirmed that elevated ROS concentration may cause mitochondrial membrane depolarization and facilitate increased cellular pro-apoptotic molecules releasing. […] As has been previously reported, lead compound 1,1′-[3-(bromomethyl)-5,6-dimethoxy-1-benzofuran-2,7-diyl] induces apoptosis in human leukemia cells. […] We used the Annexin V-FITC test, which allows us to detect the early structural changes in cellular membrane which occur during apoptosis. […] In the control sample almost 94% of cells were neither apoptotic nor necrotic. […] As has been previously written, the MTT test assesses the toxicity of tested compounds based on the activity of mitochondrial enzymes. […] In order to estimate the effect of K562 exposure on the tested compounds as well as to confirm apoptotic properties of new benzofurans, we analyzed the effect of the compounds caspases 3 and 7 activities. […]

[6] = system: HaCaT cells (human immortal keratinocytes); test: MTT cytotoxicity assay, HaCaT; type: cell-based; conditions: 72 h incubation, mean ± SD
Experimental: as §1, §2, §3

Row | SMILES | IC50 [1] [µM] | Cell Number (×10^6) (K562 cells [2]) | Effect on activity of caspases 3 and 7 [3] | Increase of activity of caspases 3 and 7 ([3]; 12 h exposure) [%] | Increase of activity of caspases 3 and 7 ([3]; 48 h exposure) [%] | IC50 [4] [µM] | Apoptosis (early and late stages), share of K562 cells (K562 cells [5]) [%] | IC50 [6] [µM] | Reduction of total cell number (K562 cells [2]; K562, IC50 concentration, compared to control) [%]
1 | CCOc1cccc2oc(C(C)=O)c(CBr)c12 [Compound 8, 1-[3-(Bromomethyl)-4-Ethoxy-1-Benzofuran-2-yl]Ethanone] | 2.59 ± 0.88 | 0.83 ± 0.12 ×10^6 | did not affect the activity of caspases 3 and 7 | 27 | 13 | > 100 | 60.1 | 23.6 ± 10.7 | 
2 | COc1cc(OC)c2c(CBr)c(C(C)=O)oc2c1 [Compound 6, 1-[3-(Bromomethyl)-4,6-Dimethoxy-1-Benzofuran-2-yl]Ethanone] | 3.83 ± 0.6 | 0.62 ± 0.12 ×10^6 | did not affect the activity of caspases 3 and 7 | 26 |  | > 100 | 21.6 | 12.4 ± 1.27 | 13
